Laboratory results: ChEMBL document CHEMBL1201862, “PubChem BioAssay data set” (2004)
Active and inactive are the calls of the source.

Legend:
Cytochrome P450 2C9 = Cytochrome P450 2C9 (Homo sapiens, UniProt P11712)
[1] = target: Neurotensin receptor type 1 (Homo sapiens, UniProt P30989); type: functional;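 note: Image-based confirmatory dose-response assay measuring agonist activity at NTR1; NTR1-expressing U2OS osteosarcoma cells imaged for beta-arrestin GFP spot formation; agonist potency where compounds increase beta-arrestin recruitment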
Sequence of Neurotensin receptor type 1 (P30989 whole entry): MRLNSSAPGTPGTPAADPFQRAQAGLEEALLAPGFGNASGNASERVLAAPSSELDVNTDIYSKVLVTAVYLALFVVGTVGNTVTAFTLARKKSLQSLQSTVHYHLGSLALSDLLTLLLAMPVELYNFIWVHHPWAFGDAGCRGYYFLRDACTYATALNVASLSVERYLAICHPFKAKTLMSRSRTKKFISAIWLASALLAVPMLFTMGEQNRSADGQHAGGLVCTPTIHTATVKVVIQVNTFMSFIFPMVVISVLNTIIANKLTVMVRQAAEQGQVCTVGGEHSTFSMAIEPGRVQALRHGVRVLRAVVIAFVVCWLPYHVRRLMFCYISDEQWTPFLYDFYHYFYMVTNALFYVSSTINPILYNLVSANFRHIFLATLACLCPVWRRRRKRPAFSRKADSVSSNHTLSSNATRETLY

[2] = target: T1, Microphthalmia-associated transcription factor (Homo sapiens, UniProt O75030); assay: TRPM1 promoter luciferase signal decrease, dose response, MITF inhibitor project, cell-based, SK-MEL-5, cherry-picked, set 3 (AID 493073); type: functional
T1 sequence (O75030 whole entry): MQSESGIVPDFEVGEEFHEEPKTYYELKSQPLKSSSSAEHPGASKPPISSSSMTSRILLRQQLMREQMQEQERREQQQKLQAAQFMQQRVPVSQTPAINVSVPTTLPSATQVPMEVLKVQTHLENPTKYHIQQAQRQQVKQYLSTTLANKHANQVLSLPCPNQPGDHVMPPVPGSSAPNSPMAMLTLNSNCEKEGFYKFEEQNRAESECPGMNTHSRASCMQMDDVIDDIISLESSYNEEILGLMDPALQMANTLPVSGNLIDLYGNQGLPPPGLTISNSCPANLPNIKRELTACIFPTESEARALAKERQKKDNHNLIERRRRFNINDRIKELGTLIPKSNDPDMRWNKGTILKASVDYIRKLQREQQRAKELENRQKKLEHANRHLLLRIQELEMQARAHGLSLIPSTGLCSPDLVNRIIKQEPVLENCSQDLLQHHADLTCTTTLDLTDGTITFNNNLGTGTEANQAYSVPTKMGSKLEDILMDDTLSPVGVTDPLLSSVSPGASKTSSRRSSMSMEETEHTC

[3] = Luminescent dose response cell-based high throughput screening assay for inhibitors of the Janus kinase 2 mutant JAK2V617F. [Related pubchem assays: 1446 (Primary screen.), 1521 (Confirmation assay.), 1486 (Counter screen.)]; type: functional
[4] = Luminescence Cell-Based Dose Retest to Confirm Inhibitors of Cancer Stem Cells. [Related pubchem assays (depositor defined):AID2717, AID2721]; type: functional, Homo sapiens; details: Homo sapiens
[5] = THP-1 cell cytotoxicity, dose response, cytotoxicity control for non-replicating M. tuberculosis project (AID 489025); type: functional
[6] = Vero E6 cell cytotoxicity, dose response, cytotoxicity control for non-replicating M. tuberculosis project, secondary assay (AID 492998); type: functional, VeroE6; details: Vero C1008
BJ [7] = assay: cytotoxicity toward BJ-TERT fibroblasts, dose response, cell-based, RAS-independent, luminescence (AID 1933); type: functional; details: Homo sapiens
BJ [8] = assay: cytotoxicity toward BJ-TERT-LT-ST fibroblasts, dose response, cell-based, RAS-independent, luminescence (AID 1935); type: functional; details: Homo sapiens;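 note: BJ fibroblasts immortalized with TERT plus LT and ST oncogenes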
BJ [9] = assay: cells; type: functional, cell-based; details: Homo sapiens
[10] = cytotoxicity toward DRD oncogenic fibroblasts, dose response, cell-based, non-viral oncogenic, luminescence (AID 1934); type: functional; details: Homo sapiens
cells = type: functional
[11] = Cytotoxicity screening for potential Inhibitors of Bacterial Capsule Biogenesis. [Related pubchem assays (depositor defined):AID488970]; type: functional
Protein skinhead-1 = target: T2, Protein skinhead-1 (Caenorhabditis elegans, UniProt P34707); type: functional
T2 sequence (P34707 whole entry): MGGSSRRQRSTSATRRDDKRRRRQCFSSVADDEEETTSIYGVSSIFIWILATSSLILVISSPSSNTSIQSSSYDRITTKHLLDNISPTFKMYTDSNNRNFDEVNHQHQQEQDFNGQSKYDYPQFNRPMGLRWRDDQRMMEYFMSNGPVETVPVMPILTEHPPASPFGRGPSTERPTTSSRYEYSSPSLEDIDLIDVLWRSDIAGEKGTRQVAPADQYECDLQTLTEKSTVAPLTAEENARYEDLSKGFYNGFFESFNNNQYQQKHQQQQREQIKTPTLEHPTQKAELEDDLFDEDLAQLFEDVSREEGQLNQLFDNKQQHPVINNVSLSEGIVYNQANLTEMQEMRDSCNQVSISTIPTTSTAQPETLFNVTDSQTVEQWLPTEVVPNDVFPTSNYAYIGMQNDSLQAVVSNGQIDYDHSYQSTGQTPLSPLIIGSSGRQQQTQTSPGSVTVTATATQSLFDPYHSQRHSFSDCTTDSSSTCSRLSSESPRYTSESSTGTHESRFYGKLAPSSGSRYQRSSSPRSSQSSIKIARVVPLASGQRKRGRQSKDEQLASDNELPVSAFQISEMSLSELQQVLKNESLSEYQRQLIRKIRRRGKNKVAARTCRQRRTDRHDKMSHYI

HEK293 [12] = assay: NOD2 signaling inhibitors in MDP-stimulated cells, cell-based, uHTS, luminescence (AID 2001); type: functional; details: Homo sapiens
[13] = A549 cell cytotoxicity, dose response, cytotoxicity control, plate reader, cherry-pick, antagonist series (AID 743412); type: functional, cell-based
HEK293 [14] = assay: cells; type: functional, cell-based; details: Homo sapiens
Tumor necrosis factor = Tumor necrosis factor (Homo sapiens, UniProt P01375); assay: TNFa-triggered NF-kB activation inhibitors, SAR follow-up, cell-based, revised (AID 2337); type: functional
Sequence of Tumor necrosis factor (P01375 whole entry): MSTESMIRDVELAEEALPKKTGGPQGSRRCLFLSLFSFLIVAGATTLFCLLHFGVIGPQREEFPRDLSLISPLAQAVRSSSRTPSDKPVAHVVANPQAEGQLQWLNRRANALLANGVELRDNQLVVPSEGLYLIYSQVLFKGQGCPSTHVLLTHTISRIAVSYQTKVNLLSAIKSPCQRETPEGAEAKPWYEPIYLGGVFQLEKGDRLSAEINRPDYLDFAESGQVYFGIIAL

[15] = cytotoxicity in HPDE-C7 cells, cell-based, fluorescence, HTS (AID 430); type: functional; details: Homo sapiens
[16] = cytotoxicity in KRAS-transformed pancreatic duct cells, primary screen, cell-based, fluorescence, HTS (AID 431); type: functional; details: Homo sapiens;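 note: cell line used: HPDE-C7K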
[17] = growth suppression of beta-catenin-knockout colon cells, dose response, cell-based, HCT116, human colon tumor (AID 1045); type: functional;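 note: HCT116 colon tumor cells with beta catenin knocked out; cells exposed to compound for 60 hours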
HEK293 [18] = assay: cells; details: Homo sapiens
HEK293 [19] = assay: cells; type: functional, cell-based; details: Homo sapiens; remark: listed apart in the source
HEK293 [20] = assay: NOD1 signaling inhibitors, primary screen, cell-based, luminescence, uHTS (AID 1578); type: functional; details: Homo sapiens
[21] = MC4R antagonists, dose response, counter-screen for LGR2 antagonist project, cell-based, plate reader, cherry pick (AID 743444); type: functional;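 note: transfected HEK 293 cells stimulated with alpha-MSH peptide; potency of inhibitors of the alpha-MSH evoked signal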
[22] = target: Nucleotide-binding oligomerization domain-containing protein 2 (Homo sapiens, UniProt Q9HC29); assay: PubChem AID 2334; type: functional
Sequence of Nucleotide-binding oligomerization domain-containing protein 2 (Q9HC29 whole entry, the tested form may be a part): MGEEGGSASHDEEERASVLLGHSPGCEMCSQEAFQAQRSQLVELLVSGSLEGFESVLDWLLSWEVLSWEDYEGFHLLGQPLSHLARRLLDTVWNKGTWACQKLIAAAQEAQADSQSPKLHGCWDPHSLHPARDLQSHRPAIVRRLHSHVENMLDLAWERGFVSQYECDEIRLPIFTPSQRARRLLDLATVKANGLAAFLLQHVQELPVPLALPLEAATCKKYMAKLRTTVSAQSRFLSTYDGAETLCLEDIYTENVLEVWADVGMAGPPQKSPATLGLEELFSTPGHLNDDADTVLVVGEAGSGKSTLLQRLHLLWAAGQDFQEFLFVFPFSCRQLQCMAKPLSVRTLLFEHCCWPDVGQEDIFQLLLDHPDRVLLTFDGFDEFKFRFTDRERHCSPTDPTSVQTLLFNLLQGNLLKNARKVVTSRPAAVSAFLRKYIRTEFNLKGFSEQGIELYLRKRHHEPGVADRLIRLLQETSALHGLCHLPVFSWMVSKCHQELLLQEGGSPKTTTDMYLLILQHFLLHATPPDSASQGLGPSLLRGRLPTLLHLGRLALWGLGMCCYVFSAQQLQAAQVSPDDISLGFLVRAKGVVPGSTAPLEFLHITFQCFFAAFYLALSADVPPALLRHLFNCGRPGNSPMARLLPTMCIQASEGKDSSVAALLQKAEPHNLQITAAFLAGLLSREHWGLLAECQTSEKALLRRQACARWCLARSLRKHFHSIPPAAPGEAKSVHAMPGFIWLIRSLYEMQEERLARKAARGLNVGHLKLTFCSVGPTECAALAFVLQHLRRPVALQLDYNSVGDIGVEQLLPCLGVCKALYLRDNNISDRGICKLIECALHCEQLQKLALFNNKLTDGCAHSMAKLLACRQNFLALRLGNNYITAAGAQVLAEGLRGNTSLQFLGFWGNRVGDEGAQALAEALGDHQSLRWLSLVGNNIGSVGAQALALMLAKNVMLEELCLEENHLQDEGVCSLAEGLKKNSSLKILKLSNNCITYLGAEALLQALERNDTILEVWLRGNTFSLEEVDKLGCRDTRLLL

[23] = target: T3, Nucleotide-binding oligomerization domain-containing protein 1 (Homo sapiens, UniProt Q9Y239); assay: NOD1 signaling inhibitors, SAR follow-up, revised (AID 2333); type: functional
T3 sequence (Q9Y239 whole entry): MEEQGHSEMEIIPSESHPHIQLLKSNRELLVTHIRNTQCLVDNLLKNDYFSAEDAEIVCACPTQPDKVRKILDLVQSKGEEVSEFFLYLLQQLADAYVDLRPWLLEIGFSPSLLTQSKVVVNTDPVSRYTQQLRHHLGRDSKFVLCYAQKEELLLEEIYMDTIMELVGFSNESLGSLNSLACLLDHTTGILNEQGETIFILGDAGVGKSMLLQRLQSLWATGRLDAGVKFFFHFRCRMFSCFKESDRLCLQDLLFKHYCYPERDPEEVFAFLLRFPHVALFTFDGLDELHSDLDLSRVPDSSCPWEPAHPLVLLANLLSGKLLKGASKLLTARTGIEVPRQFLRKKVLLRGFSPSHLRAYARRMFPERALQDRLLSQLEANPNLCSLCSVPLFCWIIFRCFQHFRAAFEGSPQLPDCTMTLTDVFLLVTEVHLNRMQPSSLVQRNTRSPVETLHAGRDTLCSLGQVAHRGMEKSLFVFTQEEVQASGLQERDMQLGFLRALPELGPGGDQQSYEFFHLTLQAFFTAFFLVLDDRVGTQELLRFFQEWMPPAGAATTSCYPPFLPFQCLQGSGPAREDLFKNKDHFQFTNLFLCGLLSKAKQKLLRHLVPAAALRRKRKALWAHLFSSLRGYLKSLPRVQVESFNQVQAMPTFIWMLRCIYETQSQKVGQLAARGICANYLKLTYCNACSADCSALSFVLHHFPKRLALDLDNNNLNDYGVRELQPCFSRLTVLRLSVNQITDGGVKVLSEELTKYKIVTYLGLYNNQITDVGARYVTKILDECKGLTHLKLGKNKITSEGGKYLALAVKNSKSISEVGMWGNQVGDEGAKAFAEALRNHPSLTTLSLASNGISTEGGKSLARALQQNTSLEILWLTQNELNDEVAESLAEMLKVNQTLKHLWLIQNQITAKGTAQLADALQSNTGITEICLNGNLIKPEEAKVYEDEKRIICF

[24] = growth suppression of PTEN-null colon cells, dose response, cell-based, HCT116 PTEN knockout (AID 1047); type: functional;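 note: HCT116 colon tumor cells with PTEN knocked out; cells exposed to compound for 60 hours before readout; potency for loss of cell viability measured by luminescence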
[25] = LGR2 antagonists, dose response, cell-based, HEK293, CRE-luciferase reporter, cherry pick, set 2 (AID 743343); type: functional;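 note: transfected cells were stimulated with diluted bursicon conditioned medium after compound addition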
[26] = target: T4, Ubiquitin-conjugating enzyme E2 N (Homo sapiens, UniProt P61088); type: functional
T4 sequence (P61088 whole entry): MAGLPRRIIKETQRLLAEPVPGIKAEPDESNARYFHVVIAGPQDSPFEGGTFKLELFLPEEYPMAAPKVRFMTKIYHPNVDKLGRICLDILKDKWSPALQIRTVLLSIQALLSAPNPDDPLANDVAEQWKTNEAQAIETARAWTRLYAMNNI

[27] = target: T4, Ubiquitin-conjugating enzyme E2 N; type: functional; remark: listed apart in the source
Paired box protein Pax-8 = Paired box protein Pax-8 (Homo sapiens, UniProt Q06710); assay: inhibitors of PAX8-driven TPO luciferase reporter, dose response, RMG-I cells, cherry-pick (AID 687027); type: functional, cell-based;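 note: luciferase reporter driven by Pax8 target thyroperoxidase promoter measured by SteadyGlo luminescence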
Sequence of Paired box protein Pax-8 (Q06710 whole entry): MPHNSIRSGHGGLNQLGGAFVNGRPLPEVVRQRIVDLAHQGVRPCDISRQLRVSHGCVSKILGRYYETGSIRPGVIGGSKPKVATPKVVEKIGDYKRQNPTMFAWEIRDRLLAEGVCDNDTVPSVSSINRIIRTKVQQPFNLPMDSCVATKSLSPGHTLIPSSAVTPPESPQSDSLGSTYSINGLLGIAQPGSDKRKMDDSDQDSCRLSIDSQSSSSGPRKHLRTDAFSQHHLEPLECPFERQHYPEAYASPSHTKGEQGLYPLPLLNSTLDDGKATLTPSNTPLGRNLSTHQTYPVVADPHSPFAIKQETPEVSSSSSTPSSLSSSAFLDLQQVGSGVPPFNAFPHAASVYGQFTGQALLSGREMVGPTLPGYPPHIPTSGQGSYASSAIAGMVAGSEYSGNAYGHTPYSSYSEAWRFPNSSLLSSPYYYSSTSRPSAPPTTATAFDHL

Bcl-2-related protein A1 = target: T5, Bcl-2-related protein A1 (Mus musculus, UniProt Q07440); type: functional;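 note: confirmatory dose–response counterscreen on Bfl-1, used to check hits from a UBC13 polyubiquitin inhibitor campaign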
T5 sequence (Q07440 whole entry): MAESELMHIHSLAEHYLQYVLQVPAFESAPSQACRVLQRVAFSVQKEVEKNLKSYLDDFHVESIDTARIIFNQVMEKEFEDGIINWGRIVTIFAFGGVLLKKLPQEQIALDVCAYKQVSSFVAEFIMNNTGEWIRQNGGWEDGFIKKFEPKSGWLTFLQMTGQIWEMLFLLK

Sequence of Cytochrome P450 2C9 (P11712 whole entry): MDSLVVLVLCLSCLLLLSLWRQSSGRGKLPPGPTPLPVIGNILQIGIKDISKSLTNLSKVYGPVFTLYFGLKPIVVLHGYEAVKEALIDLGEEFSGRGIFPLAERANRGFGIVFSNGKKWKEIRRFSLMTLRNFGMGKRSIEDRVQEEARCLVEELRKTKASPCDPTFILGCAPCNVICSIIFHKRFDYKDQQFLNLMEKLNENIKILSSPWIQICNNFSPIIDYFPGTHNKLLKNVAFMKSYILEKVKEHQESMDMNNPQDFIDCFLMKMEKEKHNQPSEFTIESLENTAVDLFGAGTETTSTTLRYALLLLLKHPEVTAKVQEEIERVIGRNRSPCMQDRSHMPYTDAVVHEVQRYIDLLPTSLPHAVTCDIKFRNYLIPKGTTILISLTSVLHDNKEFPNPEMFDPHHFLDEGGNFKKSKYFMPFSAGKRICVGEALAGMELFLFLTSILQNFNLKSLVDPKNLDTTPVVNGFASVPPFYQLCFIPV

With `C/C(=C\c1ccc(N(C)C)cc1)[N+](=O)[O-]` the AC50 (Cytochrome P450 2C9) was 31.6 µM (inconclusive), the EC50 [1] was 4.26 µM (active) and the AC50 [2] was 13.1 µM (active). For the same compound, the IC50 [3] was 0.653 µM (active).

With `O=C1NC(=O)N(CCc2ccc(F)cc2)C(=O)/C1=C/C=C/c1ccccc1` the AC50 [4] was 1.05 µM (active), the CC50 [5] was 5.09 µM (active) and the CC50 [6] was 16.8 µM (active). The EC50 [1] was 39.3 µM (inactive), the EC50 (BJ [7]) was 5.32 µM (inconclusive) and the EC50 (BJ [8]) was 11.6 µM (inconclusive). The EC50 (BJ [9]) was > 150 µM (not active), the EC50 [10] was 5.39 µM (inconclusive) and the IC50 (cells) was 48.4 µM (active).

In the case of `COc1ccc2nc(NC(=O)c3ccc(Br)s3)sc2c1`, the CC50 [11] is reported as > 100 µM (active) and the IC50 (Protein skinhead-1) is reported as > 100 µM (inactive).

For `CCCc1nc(SCC(=O)N2CCC(Cc3ccccc3)CC2)c2c(=O)n(C)c(=O)n(C)c2n1`, the IC50 (HEK293 [12]) was 5.22 µM (active), the AC50 [13] was > 52 µM (inactive) and the IC50 (HEK293 [14]) was > 20 µM (inactive). For the same compound, the IC50 (Tumor necrosis factor) was 11 µM (active), the EC50 [15] was 6.8 µM (active) and the EC50 [16] was 6.62 µM (active). The EC50 [17] was 33.7 µM (active), the IC50 (HEK293 [18]) was 19.3 µM (active) and the IC50 (HEK293 [19]) was 8.67 µM (active). The EC50 (HEK293 [20]) was 5.46 µM (active), the AC50 [21] was 17.9 µM (active) and the IC50 [22] was 11.4 µM (active). The IC50 [23] was 12.2 µM (active), the EC50 [24] was 33.6 µM (active) and the AC50 [25] was 18.6 µM (active).

For `COC(=O)c1c(NC(=O)C(=O)N2CCCCC2)sc2c1CC(C)(C)OC2`, the IC50 (Tumor necrosis factor) was > 20 µM (inactive), the IC50 (HEK293 [18]) was > 20 µM (inactive) and the IC50 [22] was > 20 µM (inactive). For the same compound, the IC50 [23] was > 20 µM (inactive).

For `O=C(Nc1cccc(C2=NCCN2)c1)Nc1cccc(C2=NCCN2)c1` [IMIDOCARB DIPROPIONATE], the IC50 [26] was 10.6 µM (active), the IC50 [27] was 13.2 µM (active) and the CC50 [11] was > 100 µM (active). The AC50 (Paired box protein Pax-8) was 0.879 µM (active) and the IC50 (Bcl-2-related protein A1) was > 20 µM (inactive).
